From US20260130395A1, “Water Dispersible Botanical Compositions” (Aquila Black Limited, priority 2021, published 2026)

Assay: Stability of cannabinoid compounds and Vitamin E components in Beverage 1 (AB White) by LCMSMS
Assay type: physicochemical
Settings: for Stability of Plant-Derived Cannabinoid Compounds in AB White, 8° C.: AB White stored at 8° C.; for Stability of Plant-Derived Cannabinoid Compounds in AB White, 21-25° C.: AB White stored at 21-25° C.

**Q.** Which “Stability of Plant-Derived Cannabinoid Compounds in AB White, 8° C.” value (“Stability … 8° C.” for short) (0 days) does the source give for CCCc1cc(O)c2c(c1)OC(C)(C)[C@@H]1CCC(C)=C[C@@H]21 [THCV, delta-9-tetrahydrocannabivarin] here?
**A.** 3.6 µg/mL

**Q.** And the “Stability … 8° C.” value (1 days)?
**A.** 3.54 µg/mL

**Q.** And the “Stability … 8° C.” value (2 days)?
**A.** 3.60 µg/mL

**Q.** What about the “Stability … 8° C.” value (3 days) of the same compound?
**A.** 3.55 µg/mL

**Q.** What about the “Stability … 8° C.” value (5 days) of the same compound?
**A.** 3.58 µg/mL

**Q.** What about the “Stability … 8° C.” value (8 days) of the same compound?
**A.** 3.60 µg/mL

**Q.** And the “Stability … 8° C.” value (9 days)?
**A.** 3.61 µg/mL

**Q.** What about the “Stability … 8° C.” value (10 days) of the same compound?
**A.** 3.58 µg/mL

**Q.** What about the “Stability … 8° C.” value (11 days) of the same compound?
**A.** 3.59 µg/mL

**Q.** And the “Stability … 8° C.” value (12 days)?
**A.** 3.50 µg/mL

**Q.** What about the “Stability … 8° C.” value (15 days) of the same compound?
**A.** 3.56 µg/mL

**Q.** And the “Stability … 8° C.” value (16 days)?
**A.** 3.57 µg/mL

**Q.** And the “Stability … 8° C.” value (17 days)?
**A.** 3.61 µg/mL

**Q.** And the “Stability … 8° C.” value (18 days)?
**A.** 3.59 µg/mL

**Q.** What about the “Stability … 8° C.” value (19 days) of the same compound?
**A.** 3.51 µg/mL

**Q.** What about the “Stability … 8° C.” value (22 days) of the same compound?
**A.** 3.60 µg/mL

**Q.** And the “Stability … 8° C.” value (23 days)?
**A.** 3.55 µg/mL

**Q.** What about the “Stability … 8° C.” value (24 days) of the same compound?
**A.** 3.56 µg/mL

**Q.** What about the “Stability … 8° C.” value (25 days) of the same compound?
**A.** 3.56 µg/mL

**Q.** And the “Stability … 8° C.” value (26 days)?
**A.** 3.63 µg/mL

**Q.** And the “Stability … 8° C.” value (29 days)?
**A.** 3.52 µg/mL

**Q.** What about the “Stability … 8° C.” value (30 days) of the same compound?
**A.** 3.59 µg/mL

**Q.** And the “Stability … 8° C.” value (60 days)?
**A.** 3.58 µg/mL

**Q.** What about the “Stability … 8° C.” value (90 days) of the same compound?
**A.** 3.56 µg/mL

**Q.** And the “Stability … 8° C.” value (120 days)?
**A.** 3.56 µg/mL

**Q.** What about the “Stability … 8° C.” value (150 days) of the same compound?
**A.** 3.55 µg/mL

**Q.** And the “Stability … 8° C.” value (180 days)?
**A.** 3.59 µg/mL

**Q.** And the “Stability … 8° C.” value (210 days)?
**A.** 3.44 µg/mL

**Q.** What about the “Stability … 8° C.” value (240 days) of the same compound?
**A.** 3.56 µg/mL

**Q.** What about the “Stability … 8° C.” value (270 days) of the same compound?
**A.** 3.47 µg/mL

**Q.** And the “Stability … 8° C.” value (300 days)?
**A.** 3.46 µg/mL

**Q.** What about the “Stability … 8° C.” value (330 days) of the same compound?
**A.** 3.52 µg/mL

**Q.** What about the “Stability … 8° C.” value (360 days) of the same compound?
**A.** 3.50 µg/mL

**Q.** And the “Stability … 8° C.” value (390 days)?
**A.** 3.47 µg/mL

**Q.** What about the “Stability … 8° C.” value (420 days) of the same compound?
**A.** 3.49 µg/mL

**Q.** What about the “Stability … 8° C.” value (450 days) of the same compound?
**A.** 3.44 µg/mL

**Q.** And the “Stability … 8° C.” value (480 days)?
**A.** 3.44 µg/mL

**Q.** And the “Stability … 8° C.” value (510 days)?
**A.** 3.34 µg/mL

**Q.** And the “Stability … 8° C.” value (540 days)?
**A.** 3.32 µg/mL

**Q.** And the “Stability … 8° C.” value (570 days)?
**A.** 3.30 µg/mL

**Q.** What about the “Stability of Plant-Derived Cannabinoid Compounds in AB White, 21-25° C.” value (shortened to “Stability … 21-25° C.”) (0 days) of the same compound?
**A.** 3.6 µg/mL

**Q.** And the “Stability … 21-25° C.” value (1 days)?
**A.** 3.48 µg/mL

**Q.** What about the “Stability … 21-25° C.” value (2 days) of the same compound?
**A.** 3.58 µg/mL

**Q.** What about the “Stability … 21-25° C.” value (3 days) of the same compound?
**A.** 3.54 µg/mL

**Q.** And the “Stability … 21-25° C.” value (5 days)?
**A.** 3.55 µg/mL

**Q.** And the “Stability … 21-25° C.” value (8 days)?
**A.** 3.63 µg/mL

**Q.** What about the “Stability … 21-25° C.” value (9 days) of the same compound?
**A.** 3.55 µg/mL

**Q.** And the “Stability … 21-25° C.” value (10 days)?
**A.** 3.55 µg/mL

**Q.** And the “Stability … 21-25° C.” value (11 days)?
**A.** 3.59 µg/mL

**Q.** And the “Stability … 21-25° C.” value (12 days)?
**A.** 3.47 µg/mL

**Q.** What about the “Stability … 21-25° C.” value (15 days) of the same compound?
**A.** 3.48 µg/mL

**Q.** And the “Stability … 21-25° C.” value (16 days)?
**A.** 3.60 µg/mL

**Q.** What about the “Stability … 21-25° C.” value (17 days) of the same compound?
**A.** 3.51 µg/mL

**Q.** What about the “Stability … 21-25° C.” value (18 days) of the same compound?
**A.** 3.50 µg/mL

**Q.** And the “Stability … 21-25° C.” value (19 days)?
**A.** 3.59 µg/mL

**Q.** What about the “Stability … 21-25° C.” value (22 days) of the same compound?
**A.** 3.52 µg/mL

**Q.** What about the “Stability … 21-25° C.” value (23 days) of the same compound?
**A.** 3.57 µg/mL

**Q.** And the “Stability … 21-25° C.” value (24 days)?
**A.** 3.63 µg/mL

**Q.** What about the “Stability … 21-25° C.” value (25 days) of the same compound?
**A.** 3.54 µg/mL

**Q.** What about the “Stability … 21-25° C.” value (26 days) of the same compound?
**A.** 3.55 µg/mL

**Q.** What about the “Stability … 21-25° C.” value (29 days) of the same compound?
**A.** 3.62 µg/mL

**Q.** And the “Stability … 21-25° C.” value (30 days)?
**A.** 3.48 µg/mL

**Q.** And the “Stability … 21-25° C.” value (60 days)?
**A.** 3.50 µg/mL

**Q.** What about the “Stability … 21-25° C.” value (90 days) of the same compound?
**A.** 3.47 µg/mL

**Q.** What about the “Stability … 21-25° C.” value (120 days) of the same compound?
**A.** 3.45 µg/mL

**Q.** And the “Stability … 21-25° C.” value (150 days)?
**A.** 3.54 µg/mL

**Q.** And the “Stability … 21-25° C.” value (180 days)?
**A.** 3.52 µg/mL

**Q.** And the “Stability … 21-25° C.” value (210 days)?
**A.** 3.40 µg/mL

**Q.** What about the “Stability … 21-25° C.” value (240 days) of the same compound?
**A.** 3.41 µg/mL

**Q.** What about the “Stability … 21-25° C.” value (270 days) of the same compound?
**A.** 3.56 µg/mL

**Q.** What about the “Stability … 21-25° C.” value (300 days) of the same compound?
**A.** 3.52 µg/mL

**Q.** And the “Stability … 21-25° C.” value (330 days)?
**A.** 3.55 µg/mL

**Q.** What about the “Stability … 21-25° C.” value (360 days) of the same compound?
**A.** 3.49 µg/mL

**Q.** What about the “Stability … 21-25° C.” value (390 days) of the same compound?
**A.** 3.40 µg/mL

**Q.** And the “Stability … 21-25° C.” value (420 days)?
**A.** 3.46 µg/mL

**Q.** And the “Stability … 21-25° C.” value (450 days)?
**A.** 3.47 µg/mL

**Q.** And the “Stability … 21-25° C.” value (480 days)?
**A.** 3.30 µg/mL

**Q.** And the “Stability … 21-25° C.” value (510 days)?
**A.** 3.32 µg/mL

**Q.** What about the “Stability … 21-25° C.” value (540 days) of the same compound?
**A.** 3.44 µg/mL

**Q.** And the “Stability … 21-25° C.” value (570 days)?
**A.** 3.30 µg/mL
